One assay addresses full-length HAQ STING (Homo sapiens (Human), UniProt Q86WV6, G230A/H232R/R293Q/R71H). Briefly: 3H-cGAMP filtration binding assay (HAQ STING). Conditions: competition with tritiated cGAMP, HAQ STING membrane; read-out: EC50 (nM), 3H-cGAMP filtration binding assay for HAQ STING. A digest of the protocol: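 Competition binding of compounds against 8 nM [3H]cGAMP working stock on Hi-Five cell membranes overexpressing full-length HAQ STING; compound and membrane preincubated 60 min at RT before ligand addition. Bound radioactivity read by filtration and scintillation counting; percent activity normalized to controls, EC50 from 4-parameter fit.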

The target of a further assay is full-length WT STING (Homo sapiens (Human), UniProt Q86WV6, H232R). The assay is described as follows: 3H-cGAMP filtration binding assay (WT STING). Conditions: for EC50: competition with tritiated cGAMP, WT STING membrane. The method, then:
The ability of compounds to bind STING is quantified by their ability to compete with tritiated cGAMP ligand for human STING receptor membrane using a radioactive filter-binding assay.
The basic WT STING filtration assay protocol is as follows:
Tritium levels for each reaction well were then measured using a PerkinElmer TopCount plate reader.
After normalization to controls, the percent activity for each compound concentration was calculated by measuring the amount of remaining radioactivity. The plot of percent activity versus the log of compound concentration was fit with a 4-parameter dose response equation to calculate EC50 values.

Assay [1] has as its system IFN-β secretion in THP1 cells. The assay is described as follows: IFN-β secretion in THP1 cell culture (5 h). The format is cell-based, human. In outline:
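THP1 cells incubated with compound for 5 h at 37 °C, 5% CO2, and secreted IFN-β in supernatant quantified by AlphaLISA. Percent effect normalised to 30 uM cGAMP positive control and 0.3% DMSO. EC50 from 4-parameter fit.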

The mark [2] stands for this setting: read-out: EC50 (nM), 3H-cGAMP filtration binding assay for WT STING.
Where [3] appears, read: IFN-β secretion in THP1 cell culture, 5 h, compound at 30 μM, percent activation relative to 2′3′-cGAMP.

Like-named read-outs stand apart in the source and are kept apart here.

full-length WT STING, sequence (Q86WV6 other isoform, or with tags, fused parts or gaps H232R (already in the parent)): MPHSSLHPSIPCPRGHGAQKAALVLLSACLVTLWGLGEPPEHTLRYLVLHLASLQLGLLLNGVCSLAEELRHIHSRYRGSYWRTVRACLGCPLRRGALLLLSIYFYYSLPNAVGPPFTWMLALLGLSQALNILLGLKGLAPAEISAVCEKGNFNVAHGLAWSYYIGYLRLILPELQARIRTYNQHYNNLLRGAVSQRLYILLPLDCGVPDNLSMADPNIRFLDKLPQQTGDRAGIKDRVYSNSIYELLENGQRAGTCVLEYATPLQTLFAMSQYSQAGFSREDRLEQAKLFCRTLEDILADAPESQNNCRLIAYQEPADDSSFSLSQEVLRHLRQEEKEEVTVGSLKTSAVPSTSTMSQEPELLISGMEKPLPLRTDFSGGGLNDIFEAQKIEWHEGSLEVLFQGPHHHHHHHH
full-length HAQ STING, sequence (Q86WV6 other isoform, or with tags, fused parts or gaps, stated change not applied): as the sequence (Q86WV6 other isoform, or with tags, fused parts or gaps H232R (already in the parent)) above, with R71H, G230A, R293Q counted along it

`Nc1nc2c(ncn2[C@@H]2O[C@@H]3COP(O)(=S)O[C@H]4[C@@H](O)[C@H](n5cnc6c(N)ncnc65)O[C@@H]4COP(=O)(O)O[C@@H]2[C@@H]3O)c(=O)[nH]1` (stereo partly drawn) [Example 38, 2-amino-9-[(5R,7R,8R,12aR,14R,15R,15aS,16R)-14-(6-amino-9H-purin-9-yl)-2,10,15,16-tetrahydroxy-10-oxido-2-sulfidooctahydro-12H-5,8-methanofuro[3,2-l][1,3,6,9,11,2,10]pentaoxadiphosphacyclotetradecin-7-yl]-1,9-dihydro-6H-purin-6-one]: the EC50 at full-length HAQ STING was 3 nM; at full-length WT STING (setting [2]) it was 24.9 nM. The “% Effect at 30 μM relative to 2′3′-cGAMP” value in assay [1] came out at 123%.
On the same counts, the results for `Nc1nc2c(ncn2[C@@H]2O[C@@H]3COP(=O)(S)O[C@H]4[C@@H](O)[C@H](n5ccc6c(N)ncnc65)O[C@@H]4COP(=O)(O)O[C@@H]2[C@@H]3O)c(=O)[nH]1` (stereo partly drawn) [Example 43, 2-amino-9-[(5R,7R,8R,12aR,14R,15R,15aS,16R)-14-(4-amino-7H-pyrrolo[2,3-d]pyrimidin-7-yl)-10,15,16-trihydroxy-2,10-dioxido-2-sulfanyloctahydro-12H-5,8-methanofuro[3,2-l][1,3,6,9,11,2,10]pentaoxadiphosphacyclotetradecin-7-yl]-1,9-dihydro-6H-purin-6-one] are 162 nM, 1020 nM and 130%.
In the case of `Nc1nc2c(ncn2[C@@H]2O[C@@H]3COP(=O)(S)O[C@H]4C[C@H](n5cc(F)c6c(N)ncnc65)O[C@@H]4COP(=O)(O)O[C@@H]2[C@@H]3F)c(=O)[nH]1` (stereo partly drawn) [Example 255, 2-amino-9-[(5R,7R,8S,12aR,14R,15aS,16R)-14-(4-amino-5-fluoro-7H-pyrrolo[2,3-d]pyrimidin-7-yl)-16-fluoro-10-hydroxy-2,10-dioxido-2-sulfanyloctahydro-12H-5,8-methanofuro[3,2-1][1,3,6,9,11,2,10]pentaoxadiphosphacyclo-tetradecin-7-yl]-1,9-dihydro-6H-purin-6-one], the EC50 on full-length WT STING (setting [2]) was 302 nM. For the same compound, the “% Effect at 30 μM relative to 2′3′-cGAMP” value in assay [1] (setting [3]) worked out at 49%.
On the same counts, the results for `Nc1nc2c(ncn2[C@@H]2O[C@@H]3COP(=O)(S)O[C@H]4C[C@H](n5cc(F)c6c(N)ncnc65)O[C@@H]4COP(=O)(O)O[C@@H]2[C@@H]3F)c(=O)[nH]1` (stereo partly drawn) [Example 256, 2-amino-9-[(5R,7R,8S,12aR,14R,15aS,16R)-14-(4-amino-5-fluoro-7H-pyrrolo[2,3-d]pyrimidin-7-yl)-16-fluoro-10-hydroxy-2,10-dioxido-2-sulfanyloctahydro-12H-5,8-methanofuro[3,2-1][1,3,6,9,11,2,10]pentaoxadiphosphacyclo-tetradecin-7-yl]-1,9-dihydro-6H-purin-6-one] are 93.5 nM and 149%.
In the case of `Nc1nc2c(nnn2[C@@H]2O[C@@H]3COP(O)(=S)O[C@@H]4[C@@H](COP(O)(=S)O[C@@H]2[C@H]3F)O[C@@H](n2ccc3c(N)ncnc32)C4(F)F)c(=O)[nH]1` (stereo partly drawn) [Example 220, 5-amino-3-[(5R,7R,8S,12aR,14R,15aR,16S)-14-(4-amino-7H-pyrrolo[2,3-d]pyrimidin-7-yl)-15,15,16-trifluoro-2,10-dihydroxy-2,10-disulfidooctahydro-12H-5,8-methanofuro[3,2-l][1,3,6,9,11,2,10]pentaoxadiphosphacyclotetra-decin-7-yl]-3,6-dihydro-7H-[1,2,3]triazolo[4,5-d]pyrimidin-7-one], the inhibition at 20 µM at full-length WT STING (read-out: % Inh @ 20 uM, 3H-cGAMP filtration binding assay for WT STING) is 29%. In addition, the “% Effect at 30 μM relative to 2′3′-cGAMP” value in assay [1] was 6%.
In turn, `Nc1nc2c(ncn2[C@@H]2O[C@@H]3COP(O)(=S)O[C@H]4[C@H](F)[C@H](n5cnc6c(N)ncnc65)O[C@@H]4COP(O)(=S)O[C@@H]2C3(F)F)c(=O)[nH]1` (single isomer, unassigned) [Example 155] gave an EC50 on full-length WT STING (EC50 (nM), 3H-cGAMP filtration binding assay for WT STING) of under 1 nM. The “% Effect at 30 μM relative to 2′3′-cGAMP” value in assay [1] worked out at 139%.
